For three compounds, Activity results are on record in ChEMBL document CHEMBL5625264, “Identification of (4-chlorophenyl)(5-hydroxynaphtho[1,2-b]furan-3-yl)methanone as novel COX-2 inhibitor with analgesic profile” (Bioorg Med Chem Lett, 2024).

The structures appear in SMILES notation. Calls of active or inactive are those of the source. The rule behind the calls is not given here.

For experiment [1], the system named is Mus musculus. Briefly: Analgesic activity in ip dosed formalin-induced ICR mouse model of acute inflammatory pain. The class given is functional, organism-based.
In experiment [2] the test system is Mus musculus. Briefly: Analgesic activity in ip dosed CFA-induced ICR mouse model of chronic inflammatory pain pretreated with CFA for 3 days followed by compound administration and measured at 30 to 300 min by pain behavior test. The class given is functional, organism-based. As to conditions: time 30-300 min.

In the case of `NS(=O)(=O)c1ccc(-c2sncc2-c2ccc(F)cc2)cc1`, the outcome in experiment [1] and in experiment [2] was Active. On to `O=C(Nc1ccccc1NC(=O)c1ccc2c(c1)OCO2)c1ccc2c(c1)OCO2`, for which the result in experiment [2] was Active. Take `O=C(c1ccc(Cl)cc1)c1coc2c1cc(O)c1ccccc12`: the outcome in experiment [1] and in experiment [2] was Active.
